Where two headings read alike, the source gives them in different places. Ends that are not written are not given here.
Tests used:
[1] = system: Na+ dependent phosphate co-transport in primary human renal proximal tubule epithelial cells (RPTEC); assay: 33PO4 uptake scintillation proximity assay (SPA) in RPTEC; type: cell-based
Method: (§1) Measurement of ^33PO4 uptake and ^14C-α-methyl D-glucose uptake. A novel technique, scintillation proximity assay (SPA), was used to measure ^33PO4 uptake in-vitro. Human renal proximal-tubule primary cells (RPTEC) were purchased from Clonetics-Biowhittaker (Walkersville, Md.) (cat. no. CC2553) and were cultured and subcultured using the manufacturers recommended protocols, methods, buffers and media (cat. nos. CC3190, CC5034). Also a human renal cell-line (Hu-CL8) was cultured as previously described (Rowe et al. Candidate 56 and 58 kDa protein(s) responsible for mediating the renal defects in oncogenic hypophosphatemic osteomalacia. Bone 18(2):159-169, 1996). For ^33PO4-uptake measurement cells were grown in REBM media supplemented with 5% fetal calf serum (REBM-FCS) to 80% confluence (Clonetics-Biowhitaker, Walkersville, Md.: cat. nos. CC2553, CC3190 and CC5034) and seeded into 96 well (3000 cells/well) cytostar-T scintillating-microplates (Amersham-Pharmacia Biotech, Piscataway, N.J.: cat. no. RPNQ 0162). Cells were then cultured in 200 μL of REBM-FCS media for 24 h. Media was then replaced with serum free media (REBM) and the cells incubated for a further 3-4 h with Hu-MEPE, PTH (1-34) or media control respectively in REBM media. The concentrations of PTH (1-34) and Hu-MEPE were […] and each experimental dose was repeated eight times for statistical analysis. Following incubation media was removed and replaced with either phosphate uptake buffer (PUB) consisting of 150 mM NaCl/1 mM Cacl2/1.8 mM MgSO4/10 mM HEPE pH 7.0/0.1 mM phosphate buffer pH 7.0 and 3 uCi mL^−1 33P as orthophosphoric acid (18 MBq/mL or 5775.7 Gbq/mg stock solution Perkin Elmer, Wellesley, Mass.: cat. no. NEZ080). In order to determine the Na-dependent phosphate co-transporter activity a separate set of control cells were incubated with the same buffer but with choline chloride (150 mM) substituted for NaCl (CHUB buffer). After 10 min at 37° C. the reaction was terminated by removing the PUB and CHUB buffers and replacing with STOP buffer (CHUB buffer without radioisotope). The cytostar scintillation plates were then directly assayed for counts (CPM) using a Hewlett-Packard (Palo Alto, Calif.) Multiplate Top-counter calibrated for ^33P SPA assay. Due to the unique design of the 96 well cytostar-plate radioactive decay in solution is not detected by the counter. In contrast, radioisotope attached to or taken into the cells initiates release of plastic-scintillant photons that are detected by the top-counter photo-multiplier tube. Thus, no washes are required and direct CPM can be counted in living cells. Following CPM determination the buffers were removed from the living cells and fresh media supplemented with cell-titre-96 (Promega-Biotech, Madison, Wis.: cat. no. G5421) cell-number detection media. Cells were then further incubated at 37° C. for 4 h. Conversion of a tetrazolium salt to a colored formazan product by living cells was then measured at 490 nm using a 96 well multi-well spectrophotometer with KC-4 software (absorbance at 490 nm is directly proportional to the number of living cells). Na-dependent ^33P uptake was then calculated by subtracting background counts and the choline chloride non Na-dependent ^33P uptake and results expressed as ^33PO4 femtomoles/10^4-cells/6 min. […]

Male ICR-Swiss mice = assay: Intraperitoneal administration of Hu-MEPE and PTH (1-34) into mice, serum and urine assays; type: in vivo
Method: Intraperitoneal administration of Hu-MEPE and PTH (1-34) into mice. Male ICR-Swiss mice were used as recipients for intraperitoneal administration (100 μl) of 0.1% phosphate-buffered saline/0.1% bovine serum albumin (vehicle) and experimental conditions (Hu-MEPE and PTH 1-34) dissolved in 100 μL of vehicle. Two separate (repeat) experiments were conducted consisting of four groups with 6 and 7 animals per group. The control group was administered with 100 μL of vehicle (Group-1). Group-2 consisted of animals administered with 0.8 μg/injection of parathyroid hormone (PTH 1-34). Group 3 were injected with 0.4 μg/injection of Hu-MEPE and Group-4 with 4 μg/injection of Hu-MEPE. On day one, three bolus injections were given at 0, 3 h, and 6 h. Serum samples were then collected via retro-orbital bleed one hour after the 6 h bolus administration. The next day or 30 hours after the first bolus a fourth bolus (same amount) was given and after 1 h the animals were sacrificed and serum prepared after cardiac exsanguination. The total amounts of PTH and MEPE administered over the 30 h were 80 μg/kg/30 h PTH 1-34, 40 μg/kg/30 h Hu-MEPE (MEPE-40) and 400 μg/kg/30 h Hu-MEPE (MEPE-400). Each group was placed in a separate metabolic cage and urine was collected for the 6-hour period. After the first 6-hour urine collection mice were replaced in thoroughly cleaned metabolic cages for the remaining 24 hours. The second 24-hour urine was collected immediately after the animals were sacrificed. The urine volumes for the second and first collections were measured. Collecting urine samples from large numbers of small mice over the time frame of the experiment was not feasible. Therefore, urine samples from each group (n=7) were pooled and volumes measured via a specially designed collecting duct in the metabolic cage. To ensure reproducibility the experiment was repeated twice (the same changes occurred). To calculate the fractional excretion of phosphate (FEP) the following equation was used: 100−(100×(1−(A/B))) where A=(urine phosphorus in mg/dL)×(serum creatinine in mg/dL) and B=(urine creatinine in mg/dL)×(serum phosphorus in mg/dL). To calculate renal phosphorus clearance (RPC) in mL/minute following computation was used: (urine phosphorus in mg/dL)×(urinary volume in mL)/((serum phosphorus in mg/dL)×(time of collection in minutes)). The phosphate excretion index (PEI) was calculated using the same method described by Shimada et al. (Cloning and characterization of FGF23 as a causative factor of tumor-induced osteomalacia, Proc Natl Acad Sci USA 98:6500-6505, 2001) using the following formula: ((urinary concentration of phosphorus in mg/dL)/(serum concentration of phosphorus in mg/dL))/(total urinary creatinine in mg).
Serum and urine assays. Serum and urine assays for phosphate, calcium, chloride, potassium, creatinine, glucose and alkaline phosphatase were accomplished using 96 well format KC4-spectrophotometer multiplate kinetic/end-point analyses using routine methods and diagnostic-kits Sigma-Diagnostics). Serum 1,25-dihydroxy vitamin-D3 levels were estimated using the method of Reinhardt, et al. (A microassay for 1,25-dihydroxyvitamin D not requiring high performance liquid chromatography: application to clinical studies, J Clin Endocrinol Metab 58:91-98, 1984). Analysis of data for fractional excretion of phosphate (FEP) was carried out following the same method described previously by Shimada et al. (Mutant FGF-23 responsible for autosomal dominant hypophosphatemic rickets is resistant to proteolytic cleavage and causes hypophosphatemia in vivo, Endocrinology 143:3179-82, 2002) for FGF23 bolus administration studies and by Nesbitt et al. (Crosstransplantation of kidneys in normal and Hyp mice: Evidence that the Hyp mouse phenotype is unrelated to an intrinsic renal defect, J Clin Invest 89:1453-59, 1992) for renal cross-transplantation experiments in Hyp mice.
Statistical methods. […]

[2] = system: Na+ dependent phosphate co-transport in human renal proximal tubule cell-line (Hu-CL8); assay: 33PO4 uptake scintillation proximity assay (SPA) in Hu-CL8; type: cell-based; details: Hu-CL8
Method: as §1, with “After 10 min at 37° C. the reaction was terminated by removing the PUB and CHUB buffers and replacing with STOP buffer (CHUB buffer without radioisotope). The cytostar scintillation plates were then directly assayed for counts (CPM) using a Hewlett-Packard (Palo Alto, Calif.) Multiplate Top-counter calibrated for ^33P SPA assay.” left out, “Following CPM determination the buffers were removed from the living cells and fresh media supplemented with cell-titre-96 (Promega-Biotech, Madison, Wis.: cat. no. G5421) cell-number detection media. Cells were then further incubated at 37° C. for 4 h.” left out

[3] = molecular target: rabbit polyclonal antibodies raised against ASARM-peptide (SEQ ID NO. 5); assay: competitive chemiluminescent ELISA: anti-ASARM polyclonal on protein-G plates, 0.5 ng/mL biotinylated ASARM-peptide as competitor, one site binding hyperbola of % quenching
[4] = molecular target: rabbit polyclonal antibodies raised against ASARM-peptide (SEQ ID NO. 5); assay: competitive chemiluminescent ELISA: anti-ASARM polyclonal on protein-G plates, 0.5 ng/mL biotinylated ASARM-peptide as competitor

| Kd [3] [ng/mL] | Qmax (quench maximum) [4] [%] | Molecule | inhibition of Na+ dependent phosphate co-transport [1] | inhibition of Na+ dependent phosphate co-transport ([1]; listed as PTH) | fractional excretion of phosphate (FEP) (Male ICR-Swiss mice; 7 h, PTH 80 ug/kg/30 h, vehicle 7.8%) [%] | urine phosphate (Male ICR-Swiss mice; 7 h, PTH 80 ug/kg/30 h i.p., vehicle 31.8) [mg/dL] | fractional excretion of phosphate (FEP) (Male ICR-Swiss mice; 31 h, PTH 80 ug/kg/30 h, vehicle 28.7%) [%] | serum alkaline phosphatase (Male ICR-Swiss mice; 31 h, PTH 80 ug/kg/30 h, vehicle 65.06) [U/L] | serum 1,25-dihydroxy vitamin-D3 (Male ICR-Swiss mice; 31 h, PTH 1-34 80 ug/kg/30 h, pooled, vehicle 25.2) [pg/mL] | serum phosphate (Male ICR-Swiss mice; 31 hours, PTH 80 ug/kg/30 h i.p., vehicle 11.94) [mg/dL] | urine phosphate (Male ICR-Swiss mice; 31 h second urine, PTH 80 ug/kg/30 h, vehicle 175.9) [mg/dL] | serum phosphate vs vehicle (Male ICR-Swiss mice; after 7 hours, i.p., PTH and MEPE animals) | serum calcium vs vehicle (Male ICR-Swiss mice; after 7 hours, PTH 80 ug/kg/30 h, low Hu-MEPE dose) | urine calcium vs Hu-MEPE and vehicle (Male ICR-Swiss mice; after 31 hours, PTH) | inhibition of Na+ dependent phosphate co-transport [2] |
| --- | --- | --- | --- | --- | --- | --- | --- | --- | --- | --- | --- | --- | --- | --- | --- |
| – | – | PTH (1-34): parathyroid hormone (PTH 1-34), used as a positive control (SVSEIQLMHNLGKHLNSMERVEWLRKKLQDVHNF; Parathyroid hormone; UniProt P01270 32-65, looked up, fragment) [reference compound] | Dose dependent inhibition | dose-dependent inhibition | 27.4 | 61.6 | 53.3 | 46.3 | 61.2 | 8.32 | 238.3 | no significant differences | significantly elevated | significantly hypocalciuric | Dose dependent inhibition |
| 7.5 | 98.7 | RDDSSESSDSGSSSESDGD (not fully specified) | – | – | – | – | – | – | – | – | – | – | – | – | – |
